These results are taken from US10640495B2, “Heterocycle derivatives having TrkA inhibitory activity” (Shionogi & Co., Ltd., priority 2015, dated 2020).

Some results are limits rather than exact numbers.

human TrkA, sequence (P04629 440-796): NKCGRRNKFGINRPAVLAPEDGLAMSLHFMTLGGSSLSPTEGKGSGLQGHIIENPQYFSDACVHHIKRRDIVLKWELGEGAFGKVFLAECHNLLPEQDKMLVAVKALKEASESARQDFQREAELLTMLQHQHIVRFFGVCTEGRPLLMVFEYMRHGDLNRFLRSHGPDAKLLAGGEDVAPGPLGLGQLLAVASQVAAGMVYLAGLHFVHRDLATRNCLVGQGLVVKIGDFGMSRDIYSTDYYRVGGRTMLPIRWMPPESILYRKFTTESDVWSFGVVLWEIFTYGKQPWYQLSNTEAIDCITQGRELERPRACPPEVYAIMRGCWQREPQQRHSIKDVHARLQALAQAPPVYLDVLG

In one assay the target is human TrkA (Homo sapiens (Human), UniProt P04629). Briefly: Human TrkA inhibition assay (Test Example 2). Format: biochemical. To be noted: Table 155, human TrkA inhibition; read-out: IC50. The procedure, abridged:
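Recombinant TrkA (1 nmol/L) was preincubated 15 min at room temperature with compound in HEPES/MgCl2/DTT buffer, then reacted with FL-peptide 27 (1.5 μmol/L) and ATP (500 μmol/L) for 120 min at 37 °C. After EDTA stop, substrate phosphorylation was read by microfluidic mobility shift. IC50 came from logistic regression over 3-fold dilution series.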
In the case of `COCCN1C[C@@H](NC(=O)Nc2c(C)c(-c3cc(C(=O)NC(C)(C)C(F)(F)F)c(=O)n(C)c3)nn2-c2ccccc2)[C@H](c2ccnc(F)c2)O1` (racemic) [Compound I-390], the IC50 (as a rule, the midpoint of a concentration-inhibition curve) is less than 100 nM.

Turning to `COCCN1C[C@@H](NC(=O)Nc2c(C)c(-c3ccc(N4C[C@H]5COC[C@@H](C4)N5C(=O)OC(C)(C)C)nc3)nn2-c2ccccc2)[C@H](c2ccnc(F)c2)O1` (racemic) [Compound I-393], the IC50 was less than 100 nM.

Regarding `COCCN1C[C@@H](NC(=O)Nc2c(C)c(-c3ccc(N4C[C@H]5COC[C@@H](C4)N5)nc3)nn2-c2ccccc2)[C@H](c2ccnc(F)c2)O1` (racemic) [Compound I-394], the IC50 was less than 100 nM.

In the case of `COCCN1C[C@@H](NC(=O)Nc2c(C)c(-c3ccc(N4C[C@H]5COC[C@@H](C4)N5C)nc3)nn2-c2ccccc2)[C@H](c2ccnc(F)c2)O1` (racemic) [Compound I-396], the IC50 is less than 100 nM.

As to `COCCN1C[C@@H](NC(=O)Nc2c(C)c(C3=CC(=O)N(C)C(C)(C)C3)nn2-c2ccccc2)[C@H](c2ccnc(F)c2)O1` (racemic) [Compound I-397], the IC50 is less than 100 nM.

With `COCCN1C[C@@H](NC(=O)Nc2c(C)c(-c3cnc4c(c3)nc(N3CCCC3)n4C)nn2-c2ccccc2)[C@H](c2ccnc(F)c2)O1` (racemic) [Compound I-398], the IC50 is less than 100 nM.

With `COCCN1C[C@@H](NC(=O)Nc2c(C)c(-c3cnc4c(c3)nc(N3CCN(C)CC3)n4C)nn2-c2ccccc2)[C@H](c2ccnc(F)c2)O1` (racemic) [Compound I-399], the IC50 is less than 100 nM.

On to `COCCN1C[C@@H](NC(=O)Nc2c(C)c(-c3cnc4c(c3)ncn4CC(=O)N3CCN(C)CC3)nn2-c2ccccc2)[C@H](c2ccnc(F)c2)O1` (racemic) [Compound I-400], for which the IC50 is less than 100 nM.

Consider `CNC(=O)Cn1cnc2cc(-c3nn(-c4ccccc4)c(NC(=O)N[C@@H]4CN(CCOC)O[C@H]4c4ccnc(F)c4)c3C)cnc21` (racemic) [Compound I-401], for which the IC50 is less than 100 nM.

Regarding `COCCN1C[C@@H](NC(=O)Nc2c(C)c(-c3cnc4c(c3)ncn4CC(=O)N(C)C)nn2-c2ccccc2)[C@H](c2ccnc(F)c2)O1` (racemic) [Compound I-402], the 50% inhibitory concentration (IC50) is less than 100 nM.

`COCCN1C[C@@H](NC(=O)Nc2c(C)c(-c3cnc4c(c3)nc(C(=O)N3CCN(C)CC3)n4C)nn2-c2ccccc2)[C@H](c2ccnc(F)c2)O1` (racemic) [Compound I-403]: the 50% inhibitory concentration (IC50) is less than 100 nM.

For the molecule `COCCN1C[C@@H](NC(=O)Nc2c(C)c(-c3cnc4c(c3)nc(C(=O)NC3CCN(C)CC3)n4C)nn2-c2ccccc2)[C@H](c2ccnc(F)c2)O1` (racemic) [Compound I-404], the IC50 was less than 100 nM.

For the molecule `CCN1C[C@@H](NC(=O)Nc2c(C)c(-c3cnc(OC)nc3)nn2-c2ccccc2)[C@H](c2ccc(F)c(F)c2)O1` (racemic) [Compound I-405], the IC50 was less than 100 nM.

For the molecule `COCCN1C[C@@H](NC(=O)Nc2c(C)c(-c3cnc(N4CC5(CCOCC5)C4)nc3)nn2-c2ccccc2)[C@H](c2ccnc(F)c2)O1` (racemic) [Compound I-408], the half-inhibitory concentration (IC50) is less than 100 nM.

As to `COCCN1C[C@@H](NC(=O)Nc2c(C)c(-c3cnc(OCCN(C)C)nc3)nn2-c2ccccc2)[C@H](c2ccnc(F)c2)O1` (racemic) [Compound I-409], the IC50 was less than 100 nM.

As to `COCCN1C[C@@H](NC(=O)Nc2c(C)c(-c3cnc4c(c3)c(CN3CCCC3)nn4C)nn2-c2ccccc2)[C@H](c2ccnc(F)c2)O1` (racemic) [Compound I-412], the IC50 is less than 100 nM.

For `COCCN1C[C@@H](NC(=O)Nc2c(C)c(-c3cnc(N4CCNCC4)nc3)nn2-c2ccccc2)[C@H](c2ccnc(F)c2)O1` (racemic) [Compound I-414], the IC50 is less than 100 nM.

For the molecule `COCCN1C[C@@H](NC(=O)Nc2c(C)c(-c3cnc(N4CCNCC4)nc3)nn2-c2ccccc2)[C@H](c2cc(F)nc(F)c2)O1` (racemic) [Compound I-415], the IC50 was less than 100 nM.

With `COCCN1C[C@@H](NC(=O)Nc2c(C)c(-c3cnc(N4CCN(CC#N)CC4)nc3)nn2-c2ccccc2)[C@H](c2ccnc(F)c2)O1` (racemic) [Compound I-416], the IC50 was less than 100 nM.

For the molecule `COCCN1C[C@@H](NC(=O)Nc2c(C)c(-c3cnc(OC4CCN(C)CC4)nc3)nn2-c2ccccc2)[C@H](c2cc(F)nc(F)c2)O1` (racemic) [Compound I-418], the IC50 was less than 100 nM.

As to `COCCN1C[C@@H](NC(=O)Nc2c(C)c(-c3cnc(N4CCN(CC#N)CC4)nc3)nn2-c2ccccc2)[C@H](c2cc(F)nc(F)c2)O1` (racemic) [Compound I-419], the IC50 was less than 100 nM.

For the molecule `COCCN1C[C@@H](NC(=O)Nc2c(C)c(-c3cnc(N4C[C@H]5COC[C@@H](C4)N5)nc3)nn2-c2ccccc2)[C@H](c2ccnc(F)c2)O1` (racemic) [Compound I-421], the IC50 is less than 100 nM.

With `COCCN1C[C@@H](NC(=O)Nc2c(C)c(-c3cnc(N4C[C@H]5COC[C@@H](C4)N5C)nc3)nn2-c2ccccc2)[C@H](c2ccnc(F)c2)O1` (racemic) [Compound I-422], the IC50 is less than 100 nM.

Take `COCCN1C[C@@H](NC(=O)Nc2c(C)c(-c3cnc4c(c3)c(CN3CCC(F)(F)C3)nn4C)nn2-c2ccccc2)[C@H](c2ccnc(F)c2)O1` (racemic) [Compound I-423]: the IC50 was less than 100 nM.

Consider `COCCN1C[C@@H](NC(=O)Nc2c(C)c(-c3cnc4c(c3)c(CO[Si](C)(C)C(C)(C)C)nn4C)nn2-c2ccccc2)[C@H](c2ccnc(F)c2)O1` (racemic) [Compound I-424], for which the IC50 is less than 100 nM.

Regarding `COCCN1C[C@@H](NC(=O)Nc2c(C)c(-c3cnc(OC4CC4)nc3)nn2-c2ccccc2)[C@H](c2ccnc(F)c2)O1` (racemic) [Compound I-425], the IC50 was less than 100 nM.

Turning to `COCCN1C[C@@H](NC(=O)Nc2c(C)c(-c3cnc4c(c3)ncn4C3CCN(C)CC3)nn2-c2ccccc2)[C@H](c2ccnc(F)c2)O1` (racemic) [Compound I-426], the IC50 is less than 100 nM.

Turning to `COCCN1C[C@@H](NC(=O)Nc2c(C)c(-c3cnc4c(c3)OCCO4)nn2-c2ccccc2)[C@H](c2ccnc(F)c2)O1` (racemic) [Compound I-427], the IC50 was less than 100 nM.

For the molecule `COCCN1C[C@@H](NC(=O)Nc2c(C)c(-c3cnc4c(c3)CN(Cc3ccccc3)CC4)nn2-c2ccccc2)[C@H](c2ccnc(F)c2)O1` (racemic) [Compound I-428], the IC50 was less than 100 nM.

Turning to `COCCN1C[C@@H](NC(=O)Nc2c(C)c(-c3cnc(OC)c(OC)c3)nn2-c2ccccc2)[C@H](c2cnc(F)c(F)c2)O1` (racemic) [Compound I-429], the IC50 was less than 100 nM.

For the molecule `COCCN1C[C@@H](NC(=O)Nc2c(C)c(-c3cnc4c(cnn4C)n3)nn2-c2ccccc2)[C@H](c2ccnc(F)c2)O1` (racemic) [Compound I-432], the IC50 was less than 100 nM.

For the molecule `COCCN1C[C@@H](NC(=O)Nc2c(C)c(-c3cnc(Br)nc3)nn2-c2ccccc2)[C@H](c2ccnc(F)c2)O1` (racemic) [Compound I-433], the IC50 was less than 100 nM.

For `COCCN1C[C@@H](NC(=O)Nc2c(C)c(-c3cnc4c(c3)c(CO)nn4C)nn2-c2ccccc2)[C@H](c2ccnc(F)c2)O1` (racemic) [Compound I-434], the IC50 is less than 100 nM.

As for `COCCN1C[C@@H](NC(=O)Nc2c(C)c(-c3cnc(C(=O)OC)c(CF)c3)nn2-c2ccccc2)[C@H](c2ccnc(F)c2)O1` (racemic) [Compound I-435], the IC50 is less than 100 nM.

Regarding `CNC(=O)c1ncc(-c2nn(-c3ccccc3)c(NC(=O)N[C@@H]3CN(CCOC)O[C@H]3c3ccnc(F)c3)c2C)cc1CF` (racemic) [Compound I-437], the 50% inhibitory concentration (IC50) was less than 100 nM.

In the case of `COCCN1C[C@@H](NC(=O)Nc2c(C)c(-c3cnc(C4[C@@H]5CC[C@H]4COC5)nc3)nn2-c2ccccc2)[C@H](c2ccnc(F)c2)O1` (mixture of isomers) [Compound I-438], the IC50 is less than 100 nM.

For `COCCN1C[C@@H](NC(=O)Nc2c(C)c(-c3cnc4c(c3)CN(C(C)=O)CC4)nn2-c2ccccc2)[C@H](c2ccnc(F)c2)O1` (racemic) [Compound I-439], the IC50 was less than 100 nM.

As for `COCCN1C[C@@H](NC(=O)Nc2c(C)c(-c3cnc4c(c3)CN(C)CC4)nn2-c2ccccc2)[C@H](c2ccnc(F)c2)O1` (racemic) [Compound I-440], the IC50 is less than 100 nM.

In the case of `COCCN1C[C@@H](NC(=O)Nc2c(C)c(Oc3ccnc(C(F)(F)F)c3)nn2-c2ccccc2)[C@H](c2ccnc(F)c2)O1` (racemic) [Compound I-441], the IC50 lay in the range of 100 to 1000 nM.

As for `COCCN1C[C@@H](NC(=O)Nc2c(C)c(Oc3ccnc(F)c3)nn2-c2ccccc2)[C@H](c2ccnc(F)c2)O1` (racemic) [Compound I-442], the IC50 lay within 100 to 1000 nM.

In the case of `COCCN1C[C@@H](NC(=O)Nc2c(C)c(-c3cnc(OC4CCOCC4)nc3)nn2-c2ccccc2)[C@H](c2ccnc(F)c2)O1` (racemic) [Compound I-443], the IC50 was less than 100 nM.

With `COCCN1C[C@@H](NC(=O)Nc2c(C)c(-c3cnc(COC)nc3)nn2-c2ccccc2)[C@H](c2ccnc(F)c2)O1` (racemic) [Compound I-444], the IC50 was less than 100 nM.

The same assay, now with this note: human TrkA 1 nmol/L, ATP 500 μmol/L, 120 min at 37° C.; read-out: IC50 values (TrkA phosphorylation inhibition).
Take `COCCN1C[C@@H](NC(=O)Nc2c(C)c(-c3ccc(N4CCN(C)CC4)nc3)nn2-c2ccccc2)[C@H](c2ccnc(F)c2)O1` (racemic) [Compound I-392]: the IC50 worked out at 6.8 nM.

Regarding `CCN1C[C@@H](NC(=O)Nc2c(C)c(-c3cnc(OC)c(C(=O)NC)c3)nn2-c2ccccc2)[C@H](c2ccc(F)c(F)c2)O1` (racemic) [Compound I-406], the IC50 was determined as 2.2 nM.

In the case of `COCCN1C[C@@H](NC(=O)Nc2c(C)c(-c3cnc4c(cnn4C4CCN(C)CC4)c3)nn2-c2ccccc2)[C@H](c2ccnc(F)c2)O1` (racemic) [Compound I-413], the IC50 was found to be 2.5 nM.

`COCCN1C[C@@H](NC(=O)Nc2c(C)c(-c3cnc(OCC4CC4)nc3)nn2-c2ccccc2)[C@H](c2ccnc(F)c2)O1` (racemic) [Compound I-431]: the IC50 was found to be 3.1 nM.

`COCCN1C[C@@H](NC(=O)Nc2c(C)c(-c3cnc(OCC(F)F)nc3)nn2-c2ccccc2)[C@H](c2ccnc(F)c2)O1` (racemic) [Compound I-436]: the half-maximal inhibitory concentration (IC50) turned out to be 4 nM.
